Laboratory results taken from ChEMBL document CHEMBL5729069, “4,6 dihydropyrrolo [3,4-C] pyrazole-5 (1H)-carbonitrile derivates for treating cancer” (2022).

Biological target: Ubiquitin carboxyl-terminal hydrolase 7 (Homo sapiens, UniProt Q93009)
Assay: Biochemical Assay: Dilution plates were prepared at 21 times the final concentration (2100 μM for a final concentration of 100 μM) in 50% DMSO in a 96-well polypropylene V-bottom plate (Greiner #651201). A typical 8-point dilution series would be 100, 30, 10, 3, 1, 0.3, 0.1, 0.03 μM final. Reactions were performed in duplicate in black 384 well plates (small volume, Greiner 784076) in a final reaction volume of 21 μl. Either 1 μl of 50% DMSO or diluted compound was added to the plate. USP7 was diluted in reaction buffer (20 mM Tris, pH 7.5, 100 mM NaCl, 0.05% Tween 20, 0.5 mg/ml BSA, 5 mM—beta mercaptoethanol) to the equivalent of 0.0025 μl/well and 10 μl of diluted USP7 was added to the compound. Enzyme and compound were incubated for 30 min at room temp. Reactions were initiated by the addition of 50 nM of TAMRA labelled peptide linked to ubiquitin via an iso-peptide bond as fluorescence polarisation substrate. Reactions were read immediately after addition of substrate and following a 2 hr incubation at room temperature. Readings were performed on a Pherastar Plus (BMG Labtech). λ Excitation 540 nm; λ Emission 590 nm.

Ubiquitin carboxyl-terminal hydrolase 7, sequence (Q93009 whole entry): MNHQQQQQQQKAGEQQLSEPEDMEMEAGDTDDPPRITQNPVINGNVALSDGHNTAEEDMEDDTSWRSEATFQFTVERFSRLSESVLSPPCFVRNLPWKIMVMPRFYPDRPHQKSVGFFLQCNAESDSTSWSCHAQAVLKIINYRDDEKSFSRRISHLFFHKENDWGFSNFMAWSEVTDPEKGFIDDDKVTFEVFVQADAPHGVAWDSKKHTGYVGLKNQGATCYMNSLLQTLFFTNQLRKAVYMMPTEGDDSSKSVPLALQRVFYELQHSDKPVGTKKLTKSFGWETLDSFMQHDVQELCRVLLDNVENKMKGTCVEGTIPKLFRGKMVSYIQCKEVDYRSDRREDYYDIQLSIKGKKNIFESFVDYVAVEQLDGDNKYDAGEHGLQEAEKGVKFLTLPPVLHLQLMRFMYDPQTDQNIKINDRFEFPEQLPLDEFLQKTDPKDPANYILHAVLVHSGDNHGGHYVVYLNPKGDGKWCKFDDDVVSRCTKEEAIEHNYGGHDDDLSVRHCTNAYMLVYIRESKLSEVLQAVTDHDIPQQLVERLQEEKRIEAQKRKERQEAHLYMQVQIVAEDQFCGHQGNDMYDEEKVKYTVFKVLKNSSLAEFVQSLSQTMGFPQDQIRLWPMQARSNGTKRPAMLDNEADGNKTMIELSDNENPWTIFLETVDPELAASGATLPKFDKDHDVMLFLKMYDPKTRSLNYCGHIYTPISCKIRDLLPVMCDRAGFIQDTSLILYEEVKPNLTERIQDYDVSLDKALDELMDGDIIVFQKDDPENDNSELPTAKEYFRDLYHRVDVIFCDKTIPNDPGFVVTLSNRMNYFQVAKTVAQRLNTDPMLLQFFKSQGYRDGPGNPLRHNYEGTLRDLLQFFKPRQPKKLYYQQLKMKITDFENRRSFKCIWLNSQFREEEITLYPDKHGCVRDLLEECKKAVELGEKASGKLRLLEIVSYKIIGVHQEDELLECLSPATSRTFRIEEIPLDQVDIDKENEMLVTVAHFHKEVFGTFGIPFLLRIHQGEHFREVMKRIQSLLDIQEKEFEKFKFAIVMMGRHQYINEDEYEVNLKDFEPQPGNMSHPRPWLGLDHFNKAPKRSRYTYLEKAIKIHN

## N#CN1Cc2[nH]nc(-c3cccc(N4CCCC4=O)c3)c2C1
  IC50: < 10 µM

## N#CN1Cc2[nH]nc(-c3cccc(N4CCOC4=O)c3)c2C1
  IC50: < 10 µM
